According to patent publication US20220062240A1, “METHODS OF TREATING CANCER USING A CLK INHIBITOR” (BioSplice Therapeutics, Inc., priority 2018, published 2022):
Like-named read-outs stand apart in the source and are kept apart here.

Columns and labels:
[1] = system: liver cancer (3 cell lines); assay: CellTiter-Glo Viability Assay, liver cancer; format: cell-based; details: Homo sapiens, inhibition of cancer cell proliferation
[2] = biological target: CLK3 (Homo sapiens, UniProt P49761); assay: CLK3 kinase activity assay (Z-lyte, Ser/Thr 18 peptide)
CLK3, sequence (P49761 whole entry): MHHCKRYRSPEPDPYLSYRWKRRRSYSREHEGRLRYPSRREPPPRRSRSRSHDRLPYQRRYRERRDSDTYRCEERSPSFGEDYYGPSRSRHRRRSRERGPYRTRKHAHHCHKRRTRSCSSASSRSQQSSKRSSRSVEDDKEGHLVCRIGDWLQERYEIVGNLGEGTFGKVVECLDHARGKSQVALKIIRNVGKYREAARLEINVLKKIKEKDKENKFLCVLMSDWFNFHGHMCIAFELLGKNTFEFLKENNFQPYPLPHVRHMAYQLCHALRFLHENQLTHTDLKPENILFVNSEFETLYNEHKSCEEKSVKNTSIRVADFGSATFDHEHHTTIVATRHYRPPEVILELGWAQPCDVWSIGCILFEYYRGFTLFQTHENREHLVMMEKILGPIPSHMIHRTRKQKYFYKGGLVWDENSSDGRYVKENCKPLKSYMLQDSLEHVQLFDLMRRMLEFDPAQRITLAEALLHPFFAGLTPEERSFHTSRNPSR

[3] = system: prostate cancer (5 cell lines); assay: CellTiter-Glo Viability Assay, prostate cancer; format: cell-based; details: Homo sapiens
[4] = system: ovarian cancer (4 cell lines); assay: CellTiter-Glo Viability Assay, ovarian cancer; format: cell-based; details: Homo sapiens, inhibition of cancer cell proliferation
[5] = system: lung cancer (4 cell lines); assay: CellTiter-Glo Viability Assay, lung cancer; format: cell-based; details: Homo sapiens, inhibition of cancer cell proliferation
[6] = system: ZR-75-1; assay: CellTiter-Glo Viability Assay, breast cancer; format: cell-based; details: Homo sapiens, 96 h; ZR-75-1, breast cancer, four days; read-out: EC50
[7] = system: MDA-MB-231-Luc; assay: CellTiter-Glo Viability Assay, breast cancer; format: cell-based; details: Homo sapiens, 96 h; MDA-MB-231-Luc, breast cancer, four days; read-out: EC50
[8] = system: T47D; assay: CellTiter-Glo Viability Assay, breast cancer; format: cell-based; details: Homo sapiens, 96 h, breast cancer, four days, read-out: EC50
[9] = system: CAMA1; assay: CellTiter-Glo Viability Assay, breast cancer; format: cell-based; details: Homo sapiens, CAMA-1, 96 h; CAMA1, breast cancer, four days; read-out: EC50
[10] = system: HCC1599; assay: CellTiter-Glo Viability Assay, breast cancer; format: cell-based; details: Homo sapiens, 96 h; HCC1599, breast cancer, four days; read-out: EC50
[11] = system: MCF7; assay: CellTiter-Glo Viability Assay, breast cancer; format: cell-based; details: Homo sapiens, 96 h; MCF7, breast cancer, four days; read-out: EC50
[12] = system: DU4475; assay: CellTiter-Glo Viability Assay, breast cancer; format: cell-based; details: Homo sapiens, DU-4475, 96 h; DU4475, breast cancer, four days; read-out: EC50
[13] = system: BT-549; assay: CellTiter-Glo Viability Assay, breast cancer; format: cell-based; details: Homo sapiens, 96 h; BT-549, breast cancer, four days; read-out: EC50
[14] = biological target: T1, CLK2 (Homo sapiens, UniProt P49760); assay: CLK2 kinase activity assay (Z-lyte, Ser/Thr 6 peptide); format: biochemical; details: recombinant CLK2 kinase, ATP 60 μM; read-out: EC50
T1 construct: purchased Thermo Fisher (Life Technologies), Z'-LYTE Kinase Assay Kits
T1 sequence (P49760 whole entry): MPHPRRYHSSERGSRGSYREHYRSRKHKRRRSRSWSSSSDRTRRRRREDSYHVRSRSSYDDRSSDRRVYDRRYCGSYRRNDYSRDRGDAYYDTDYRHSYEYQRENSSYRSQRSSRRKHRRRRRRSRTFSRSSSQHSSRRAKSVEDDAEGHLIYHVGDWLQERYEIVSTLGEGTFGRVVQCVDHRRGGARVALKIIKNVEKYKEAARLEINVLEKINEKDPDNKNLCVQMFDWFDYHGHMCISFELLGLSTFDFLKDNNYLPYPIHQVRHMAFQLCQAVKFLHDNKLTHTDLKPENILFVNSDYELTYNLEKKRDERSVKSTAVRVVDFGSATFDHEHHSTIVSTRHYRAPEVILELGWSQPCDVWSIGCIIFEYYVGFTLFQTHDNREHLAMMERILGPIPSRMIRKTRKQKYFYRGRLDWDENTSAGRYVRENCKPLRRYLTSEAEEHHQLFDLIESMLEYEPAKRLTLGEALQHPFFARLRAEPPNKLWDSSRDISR
Procedure: All reactions were performed in duplicate.

[15] = system: all 50 cell lines; assay: CellTiter-Glo Viability Assay, average across all cell lines; format: cell-based; details: Homo sapiens; across all 50 cell lines; read-out: average EC50 for inhibition of cancer cell proliferation
Outline: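 Proliferation of a multi-tissue human cancer line panel is assessed over four days at 37° C and 5% CO2, seeding 300-3,000 cells/well. Viability is quantified by CellTiter-Glo luminescence, and EC50 values are calculated.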

[16] = system: colorectal cancer (6 cell lines); assay: CellTiter-Glo Viability Assay, colorectal cancer; format: cell-based; details: Homo sapiens, inhibition of cancer cell proliferation
[17] = system: pancreatic cancer (8 cell lines); assay: CellTiter-Glo Viability Assay, pancreatic cancer; format: cell-based; details: Homo sapiens, inhibition of cancer cell proliferation
[18] = system: haematopoietic & lymphoid tumors (13 cell lines); assay: CellTiter-Glo Viability Assay, haematopoietic & lymphoid tumors; format: cell-based; details: Homo sapiens, inhibition of cancer cell proliferation
[19] = SNU-398, SNU398 cell line, read-out: Liver cancer, EC50 SNU398
[20] = HEPG2 cell line, read-out: Liver cancer, EC50 HEPG2
[21] = PLC/PRF/5 cell line, read-out: Liver cancer, EC50 PLC/PRF/5
[22] = DU-145, read-out: Prostate cancer EC50 Du-145
[23] = PC-3, PC3 cell line, inhibition of cancer cell proliferation, read-out: Prostate cancer EC50 PC3
[24] = 22Rv1 cell line, inhibition of cancer cell proliferation, read-out: Prostate cancer EC50 22Rv1
[25] = LNCap clone FGC cell line, inhibition of cancer cell proliferation, read-out: Prostate cancer EC50 LNCap clone FGC
[26] = VCaP (Sigma) cell line, inhibition of cancer cell proliferation, read-out: Prostate cancer EC50 VCaP (Sigma)
[27] = PA-1, PA1 cell line, read-out: Ovarian cancer, EC50 (μM) PA1
[28] = TOV112D, TOV-112D cell line, read-out: Ovarian cancer, EC50 (μM) TOV-112D
[29] = OV-90 cell line, read-out: Ovarian cancer, EC50 (μM) OV-90
[30] = OVCAR-3 cell line, read-out: Ovarian cancer, EC50 (μM) OVCAR-3
[31] = A-427, A427 cell line, read-out: Lung cancer, EC50 (μM) A427
[32] = HCC78, HCC-78 cell line, read-out: Lung cancer, EC50 (μM) HCC-78
[33] = NCI-H460 cell line, read-out: Lung cancer, EC50 (μM) NCI-H460
[34] = NCI-H522 cell line, read-out: Lung cancer, EC50 (μM) NCI-H522
[35] = HCT-116, HCT116 cell line, read-out: Colorectal cancer, EC50 (μM) HCT116
[36] = HT-29, HT29 cell line, read-out: Colorectal cancer, EC50 (μM) HT29
[37] = SW-620, SW620 cell line, read-out: Colorectal cancer, EC50 (μM) SW620
[38] = DLD-1 cell line, read-out: Colorectal cancer, EC50 (μM) DLD-1
[39] = SW48 cell line, read-out: Colorectal cancer, EC50 (μM) SW48
[40] = BXPC-3, BxPC3 cell line, read-out: Pancreatic cancer, EC50 BxPC3
[41] = CAPAN-1, Capan1 cell line, read-out: Pancreatic cancer, EC50 Capan1
[42] = Capan-2, Capan2 cell line, read-out: Pancreatic cancer, EC50 Capan2
[43] = MIA PaCa-2 cell line, read-out: Pancreatic cancer, EC50 MIA PaCa-2
[44] = PANC 05.04 cell line, read-out: Pancreatic cancer, EC50 PANC 05.04
[45] = PANC-1 cell line, read-out: Pancreatic cancer, EC50 PANC-1
[46] = UPAFII cell line, read-out: Pancreatic cancer, EC50 UPAFII
[47] = DND41, DND-41 cell line, read-out: Haematopoietic & Lymphoid tumors, EC50 (μM) DND-41
[48] = MV4-11, MV-4-11 cell line, read-out: Haematopoietic & Lymphoid tumors, EC50 (μM) MV-4-11
[49] = Rec1, REC-1 cell line, read-out: Haematopoietic & Lymphoid tumors, EC50 (μM) REC-1
[50] = SU-DHL-4, SUDHL4 cell line, read-out: Haematopoietic & Lymphoid tumors, EC50 (μM) SUDHL4
[51] = HL-60 cell line, read-out: Haematopoietic & Lymphoid tumors, EC50 (μM) HL-60
[52] = JM1 cell line, read-out: Haematopoietic & Lymphoid tumors, EC50 (μM) JM1
[53] = JURKAT, Clone E6-1 cell line, read-out: Haematopoietic & Lymphoid tumors, EC50 (μM) JURKAT, Clone E6-1
[54] = JeKo-1 cell line, read-out: Haematopoietic & Lymphoid tumors, EC50 (μM) JeKo-1
[55] = KASUMI-1 cell line, read-out: Haematopoietic & Lymphoid tumors, EC50 (μM) KASUMI-1
[56] = Loucy cell line, read-out: Haematopoietic & Lymphoid tumors, EC50 (μM) Loucy
[57] = MOLT-4 cell line, read-out: Haematopoietic & Lymphoid tumors, EC50 (μM) MOLT-4
[58] = TF-1 cell line, read-out: Haematopoietic & Lymphoid tumors, EC50 (μM) TF-1
[59] = TOLEDO cell line, read-out: Haematopoietic & Lymphoid tumors, EC50 (μM) TOLEDO

Compound `CN(C)Cc1cncc(-c2ccc3[nH]nc(-c4cc5c(-c6ccoc6)ccnc5[nH]4)c3c2)c1` [Compound 51] has an EC50 [1, 19] of 232 nM, an EC50 [1, 20] greater than 10000 nM and an EC50 [1, 21] greater than 10000 nM. The EC50 [2] was 31 nM, the EC50 [3, 22] was greater than 10000 nM and the EC50 [3, 23] was 7870 nM. The EC50 [3, 24] was 859 nM, the EC50 [3, 25] was greater than 10000 nM and the EC50 [3, 26] was greater than 10000 nM. It also gave an EC50 [4, 27] of 8.98 µM, an EC50 [4, 28] greater than 10 µM and an EC50 [4, 29] greater than 10 µM. It also gave an EC50 [4, 30] of 3.22 µM, an EC50 [5, 31] greater than 10 µM and an EC50 [5, 32] greater than 10 µM. The EC50 [5, 33] was greater than 10 µM, the EC50 [5, 34] was 5.83 µM and the EC50 [6] was greater than 10000 nM. The EC50 [7] was greater than 10000 nM, the EC50 [8] was greater than 10000 nM and the EC50 [9] was greater than 10000 nM. The EC50 [10] was 407 nM, the EC50 [11] was greater than 10000 nM and the EC50 [12] was 7190 nM. It also gave an EC50 [13] greater than 10000 nM, an EC50 [14] of 1.4 nM and an EC50 [15] of 6510 nM. The EC50 [16, 35] was 3.45 µM, the EC50 [16, 36] was greater than 10 µM and the EC50 [16, 37] was 2.34 µM. The EC50 [16, 38] was 1.64 µM, the EC50 [16, 39] was 3.77 µM and the EC50 [17, 40] was greater than 10000 nM. The EC50 [17, 41] was greater than 10000 nM, the EC50 [17, 42] was greater than 10000 nM and the EC50 [17, 43] was 3520 nM. It also gave an EC50 [17, 44] greater than 10000 nM, an EC50 [17, 45] greater than 10000 nM and an EC50 [17, 46] of 8920 nM. It also gave an EC50 [18, 47] of 0.853 µM, an EC50 [18, 48] of 0.406 µM and an EC50 [18, 49] of 0.527 µM. For the same compound, the EC50 [18, 50] was 0.501 µM, the EC50 [18, 51] was 9.46 µM and the EC50 [18, 52] was 0.195 µM. For the same compound, the EC50 [18, 53] was 2.79 µM, the EC50 [18, 54] was 0.713 µM and the EC50 [18, 55] was 5.07 µM. It also gave an EC50 [18, 56] of 1.28 µM, an EC50 [18, 57] of 7.26 µM and an EC50 [18, 58] of 7.92 µM. The EC50 [18, 59] was 0.302 µM.

Work on `CS(=O)(=O)NCc1cc(F)cc(-c2nccc3[nH]c(-c4n[nH]c5ccc(-c6cncc(NC(=O)C7CCC7)c6)cc45)cc23)c1` [Compound 53] yielded an EC50 [1, 19] of 79 nM, an EC50 [1, 20] of 2090 nM and an EC50 [1, 21] greater than 10000 nM. It also gave an EC50 [2] of 27.5 nM, an EC50 [3, 22] of 1160 nM and an EC50 [3, 23] of 473 nM. For the same compound, the EC50 [3, 24] was 563 nM, the EC50 [3, 25] was 2820 nM and the EC50 [3, 26] was 2460 nM. The EC50 [4, 27] was 2.29 µM, the EC50 [4, 28] was 0.446 µM and the EC50 [4, 29] was 1.6 µM. For the same compound, the EC50 [4, 30] was 0.145 µM, the EC50 [5, 31] was 0.23 µM and the EC50 [5, 32] was 0.961 µM. For the same compound, the EC50 [5, 33] was greater than 10 µM, the EC50 [5, 34] was 0.327 µM and the EC50 [6] was 1280 nM. It also gave an EC50 [7] of 1500 nM, an EC50 [8] of 455 nM and an EC50 [9] of 340 nM. For the same compound, the EC50 [10] was 209 nM, the EC50 [11] was 6390 nM and the EC50 [12] was 3130 nM. The EC50 [13] was 761 nM, the EC50 [14] was 9.7 nM and the EC50 [15] was 2120 nM. It also gave an EC50 [16, 35] of 0.749 µM, an EC50 [16, 36] of 8.88 µM and an EC50 [16, 37] of 0.385 µM. For the same compound, the EC50 [16, 38] was 3.57 µM, the EC50 [16, 39] was 0.861 µM and the EC50 ([16]; SW480 cell line, read-out: Colorectal cancer, EC50 (μM) SW480) was 0.305 µM. The EC50 [17, 40] was 3540 nM, the EC50 [17, 41] was 1810 nM and the EC50 [17, 42] was 3000 nM. The EC50 [17, 43] was 220 nM, the EC50 [17, 44] was 2120 nM and the EC50 [17, 45] was greater than 10000 nM. For the same compound, the EC50 [17, 46] was 1290 nM, the EC50 [18, 47] was 0.176 µM and the EC50 [18, 48] was 0.046 µM. The EC50 [18, 49] was 7.2 µM, the EC50 [18, 50] was 0.477 µM and the EC50 [18, 51] was 1.02 µM. The EC50 [18, 52] was 0.222 µM, the EC50 [18, 53] was 2.44 µM and the EC50 [18, 54] was 0.088 µM. It also gave an EC50 [18, 55] of 0.804 µM, an EC50 [18, 56] of 0.15 µM and an EC50 [18, 57] of 2.02 µM. For the same compound, the EC50 [18, 58] was 4.7 µM and the EC50 [18, 59] was 0.249 µM.
